One assay concerns EpH4-VEGF. The assay can be described thus: FLK-1/Xenograft Model, subcutaneous tumor growth. The assay is classed as in vivo, mice. The method, then:
Assay 2: FLK-1/Xenograft Model.
The ability of the compounds of the present invention to inhibit ovarian, melanoma, prostate, lung and mammary tumor cell lines established as SC xenografts was examined. These studies were conducted using doses ranging from 1 to 75 mg/kg/day.
Materials And Methods. The tumor cells were implanted subcutaneously into the indicated strains of mice. Treatment was initiated on day 1 post implantation unless otherwise indicated (e.g. treatment of the SCID mouse related to the A375 melanoma cell line began on Day 9). Eight (8) to sixteen (16) mice comprised each test group.
Animals. Female athymic mice (BALB/c, nu/nu), BALB/c mice, Wistar rats and Fisher 344 rats were obtained from Simonsen Laboratories (Gilroy, Calif.). Female A/I mice were obtained from Jackson Laboratory (Bar Harbor, Me.). DA rats were obtained from B&K Universal, Inc. (Fremont, Calif.). Athymic R/Nu rats, DBA/2N mice, and BALB/c mice were obtained from Harlan Sprague Dawley (Indianapolis, Ind.). Female C57BL/6 mice were obtained from Taconic (Germantown, N.Y.). […]
Subcutaneous Xenograft Model. […] Tumor growth was measured over 3 to 6 weeks using venier calipers tumor volumes were calculated as a product of length×width×height unless otherwise indicated. P values were calculated using the Students' t-test. […]

Assay [1] concerns HUV-EC-C cells. As to the kind of experiment: HUV-EC-C assay, a-FGF (ECGF)-induced [3H]thymidine incorporation. In kind it is cell-based, human. Particulars: a-FGF-stimulated HUV-EC cells, read-out: Mitogenesis in Endothelial Cells, [3H] Thymidine Incorporation, HUV-EC Assay, a-FGF.
Method: (§1) Repeat the wash two more times with D-PBS, resuspend the cells in about 1 ml assay medium/15 cm^2 of tissue culture flask.
(§2) Add cells to 96-well flat-bottom plates at 100 μl/well or 0.8-1.0×10^4 cells/well; incubate ˜24 h at 37° C., 5% CO2.
(§3) Use the same assay medium as mentioned in day 0, step 2 above. Titrations are made by adding 90 μl/well of drug at 200 μM (4× the final well concentration) to the top well of a particular plate column. Since the stock drug concentration-is usually 20 mM in DMSO, the 200 μM drug concentration contains 2% DMSO.
(§4) Therefore, diluent made up to 2% DMSO in assay medium (F12K+0.5% fetal bovine serum) is used as diluent for the drug titrations in order to dilute the drug but keep the DMSO concentration constant. Add this diluent to the remaining wells in the column at 60 μl/well. Take 60 μl from the 120 μl of 200 μM drug dilution in the top well of the column and mix with the 60 μl in the second well of the column. Take 60 μl from this well and mix with the 60 μl in the third well of the column, and so on until two-fold titrations-are completed. When the next-to-the-last well is mixed, take 60 μl of the 120 μl in this well and discard it. Leave the last well with 60 μl of DMSO/media diluent as a non-drug-containing control. […] 9 columns of titrated drug, enough for triplicate wells each for 1) VEGF (obtained from Pepro Tech Inc., catalogue no. 100-200, 2) endothelial cell growth factor (ECGF) (also known as acidic fibroblast growth factor, or aFGF) (obtained from Boehringer Mannheim Biochemica, catalogue no. […] ECGF comes as a preparation with sodium heparin.
(§5) Transfer 50 μl/well of the drug dilutions to the 96-well assay plates containing the 0.8-1.0×10^4 cells/100 μl/well of the HUV-EC-C cells from day 0 and incubate ˜2 h at 37° C., 5% CO2.
(§6) In triplicate, add 50 μl/well of 80 μg/ml VEGF, 20 ng/ml ECGF, or media control to each drug condition. As with the drugs, the growth factor concentrations are 4× the desired final concentration. Use the assay media from day 0 step 2 to make the concentrations of growth factors.
Freeze plates overnight at −20° C.
The subject of assay [2] is HUV-EC-C cells. As to the kind of experiment: HUV-EC-C assay, VEGF-induced [3H]thymidine incorporation. Particulars: VEGF-stimulated HUV-EC cells, read-out: Mitogenesis in Endothelial Cells, [3H] Thymidine Incorporation, HUV-EC Assay, VEGF. The assay is classed as cell-based, human.
Method: as §1, §2, §3, §4, §5, §6
Freeze plates overnight at −20° C.
In a further assay the target is T1, EGF Receptor (Homo sapiens, UniProt P00533).
T1 construct: expressed in transfected cells; host or cells: NIH 3T3/C7 (3T3/EGFRc7)
As to the kind of experiment: EGF Receptor ELISA (EGFR-NIH3T3 assay). In kind it is cell-based. Particulars: EGFR-NIH3T3 whole cells.

For a further assay, the target named is T2, FLK-1 receptor (Mus musculus, UniProt P35918).
T2 construct: expressed in transfected cells; host or cells: NIH3T3 C7 #3
As to the kind of experiment: FLK-1 ELISA in FLK-1/NIH3T3 cells. In kind it is cell-based. The conditions noted are these: ELISA, FLK-1/NIH3T3 cells, VEGF stimulated.

A further assay concerns the target T3, EGFR (Homo sapiens, UniProt P00533).
T3 construct: expressed in transfected cells; host or cells: NIH 3T3/C7 (3T3/EGFRc7)
The assay can be described thus: EGF-Induced BrdU Incorporation Assay in 3T3/EGFR cells. The conditions noted are these: EGF ligand; read-out: Mitogenesis in 3T3/EGFR Cells, BrdU Incorporation, EGFR EGF Ligand IC50. The assay is classed as cell-based.

A further assay concerns the target T4, HER2 Kinase (Homo sapiens, UniProt P04626).
T4 construct: fused on or other part: Candidate partner: EGFR extracellular domain (P00533) in place of HER2's own ectodomain if Assay 1 was used; none if Assay 2 (BT-474) was used
As to the kind of experiment: HER-2 ELISA (whole-cell HER2 kinase activity). In kind it is cell-based. Particulars: whole cells.

For assay [3], the system named is 3T3/PDGFR + PDGF (T) cells. The assay can be described thus: 3T3/PDGF-βR/PDGF-BB(T) Cell Growth SRB Assay. In kind it is cell-based. The conditions noted are these: NIH 3T3 cells expressing PDGF-βR and PDGF-ββ, tumor-derived; read-out: Cell Growth Assay, SRB Readout, 3T3/PDGFR + PDGF (T) IC50.
Method: Assay 3: 3T3/PDGF-βR/PDGF-BB(T) Cell Growth SRB Assay
This part of assay is carried out in a laminar flow hood.
Trypsinize cells as usual. Transfer 200 μl of cell suspension to 10 ml of isotone. Count cells on the Coulter Counter.
Dilute cells in growth medium to 60,000 cells/ml. Transfer 100 μl of cells to each well in a 96-well flat bottom plate to give 6000 cells/well.
Gently shake plates to allow for uniform attachment of the cells to the plate.
Incubate the plates at 37° C. in a 10% CO2 incubator.
Day 1: Addition of Compound: same as for Assay 1.
Day 5: Development of Assay: same as for Assay 1.
The subject of another assay is PDGFR. The assay can be described thus: PDGF-R ELISA (receptor phosphotyrosine in whole cells). The assay is classed as cell-based. Particulars: U1242 cells.

Molecules are shown by their SMILES.

T4 sequence (P04626 720-987 limits assumed): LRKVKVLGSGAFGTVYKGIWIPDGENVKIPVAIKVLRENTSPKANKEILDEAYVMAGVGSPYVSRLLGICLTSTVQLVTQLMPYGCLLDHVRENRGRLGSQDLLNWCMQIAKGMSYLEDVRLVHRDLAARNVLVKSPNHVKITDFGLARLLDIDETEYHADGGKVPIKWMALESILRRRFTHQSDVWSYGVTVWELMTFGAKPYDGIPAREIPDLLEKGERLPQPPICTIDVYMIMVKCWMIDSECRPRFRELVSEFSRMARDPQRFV
T2 sequence (P35918 20-1345): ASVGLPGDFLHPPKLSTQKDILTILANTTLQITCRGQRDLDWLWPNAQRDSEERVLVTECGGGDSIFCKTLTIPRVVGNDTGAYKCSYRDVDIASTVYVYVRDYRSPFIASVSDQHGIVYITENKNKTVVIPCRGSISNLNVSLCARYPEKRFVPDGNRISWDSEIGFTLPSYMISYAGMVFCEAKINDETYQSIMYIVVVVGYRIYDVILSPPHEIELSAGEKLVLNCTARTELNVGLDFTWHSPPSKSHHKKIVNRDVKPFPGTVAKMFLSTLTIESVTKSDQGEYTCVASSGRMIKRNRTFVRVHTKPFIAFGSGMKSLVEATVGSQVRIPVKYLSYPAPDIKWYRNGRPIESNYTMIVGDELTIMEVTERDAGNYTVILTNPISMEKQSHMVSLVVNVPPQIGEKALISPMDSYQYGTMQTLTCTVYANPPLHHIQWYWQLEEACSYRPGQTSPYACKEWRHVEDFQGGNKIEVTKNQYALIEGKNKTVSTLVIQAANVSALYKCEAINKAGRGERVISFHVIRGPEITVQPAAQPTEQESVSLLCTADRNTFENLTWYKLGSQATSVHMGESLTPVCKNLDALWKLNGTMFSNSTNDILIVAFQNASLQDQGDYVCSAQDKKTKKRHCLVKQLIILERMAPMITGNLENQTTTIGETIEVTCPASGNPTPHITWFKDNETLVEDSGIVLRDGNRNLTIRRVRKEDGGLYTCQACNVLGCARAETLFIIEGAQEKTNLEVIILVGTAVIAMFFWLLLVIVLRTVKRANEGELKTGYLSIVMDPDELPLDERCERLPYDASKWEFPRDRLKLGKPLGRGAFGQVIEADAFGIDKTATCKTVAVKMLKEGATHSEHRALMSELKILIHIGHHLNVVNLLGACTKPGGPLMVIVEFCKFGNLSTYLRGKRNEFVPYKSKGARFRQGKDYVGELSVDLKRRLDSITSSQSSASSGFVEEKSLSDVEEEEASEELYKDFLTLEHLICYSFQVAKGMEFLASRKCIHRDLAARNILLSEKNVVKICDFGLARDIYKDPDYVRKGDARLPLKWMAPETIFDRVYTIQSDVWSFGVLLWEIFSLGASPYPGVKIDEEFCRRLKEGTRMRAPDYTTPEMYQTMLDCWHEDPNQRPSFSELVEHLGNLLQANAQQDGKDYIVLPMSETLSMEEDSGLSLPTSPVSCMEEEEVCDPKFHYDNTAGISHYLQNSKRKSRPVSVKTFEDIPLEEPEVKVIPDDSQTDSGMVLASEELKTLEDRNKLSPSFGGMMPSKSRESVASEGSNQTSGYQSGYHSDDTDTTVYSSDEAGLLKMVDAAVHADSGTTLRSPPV
T1 sequence (P00533 25-1210): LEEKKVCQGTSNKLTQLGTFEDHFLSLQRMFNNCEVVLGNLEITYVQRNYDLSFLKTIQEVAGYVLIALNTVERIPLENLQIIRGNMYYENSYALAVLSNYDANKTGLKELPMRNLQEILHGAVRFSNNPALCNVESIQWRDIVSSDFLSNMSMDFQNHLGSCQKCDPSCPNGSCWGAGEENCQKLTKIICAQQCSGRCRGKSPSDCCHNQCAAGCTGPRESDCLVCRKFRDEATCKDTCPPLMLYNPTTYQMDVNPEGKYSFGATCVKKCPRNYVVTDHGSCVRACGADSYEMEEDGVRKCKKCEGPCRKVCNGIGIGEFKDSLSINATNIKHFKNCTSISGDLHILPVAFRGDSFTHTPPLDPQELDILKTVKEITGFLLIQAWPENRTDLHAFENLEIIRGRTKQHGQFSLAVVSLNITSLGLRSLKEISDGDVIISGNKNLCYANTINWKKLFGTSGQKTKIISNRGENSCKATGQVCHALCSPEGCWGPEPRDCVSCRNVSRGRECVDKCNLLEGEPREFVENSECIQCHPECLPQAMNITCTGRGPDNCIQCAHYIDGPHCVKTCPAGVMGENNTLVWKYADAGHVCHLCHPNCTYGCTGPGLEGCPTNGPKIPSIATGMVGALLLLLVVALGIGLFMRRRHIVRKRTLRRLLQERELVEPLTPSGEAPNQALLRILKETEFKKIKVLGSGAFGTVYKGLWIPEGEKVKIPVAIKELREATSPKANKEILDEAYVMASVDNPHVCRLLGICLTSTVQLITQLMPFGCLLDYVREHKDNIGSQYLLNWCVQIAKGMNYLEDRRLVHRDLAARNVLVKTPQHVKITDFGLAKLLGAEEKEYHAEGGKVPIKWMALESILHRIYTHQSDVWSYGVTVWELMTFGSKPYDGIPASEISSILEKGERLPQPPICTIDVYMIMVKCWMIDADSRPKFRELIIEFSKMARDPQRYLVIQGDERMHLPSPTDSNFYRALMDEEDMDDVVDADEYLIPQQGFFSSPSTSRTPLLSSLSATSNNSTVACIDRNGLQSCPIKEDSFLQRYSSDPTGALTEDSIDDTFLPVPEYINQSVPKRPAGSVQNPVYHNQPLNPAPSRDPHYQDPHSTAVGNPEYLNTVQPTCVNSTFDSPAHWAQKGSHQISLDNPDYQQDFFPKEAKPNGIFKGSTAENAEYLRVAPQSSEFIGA
T3 sequence (P00533 25-1210): as above
Method for EGF Receptor: EGF Receptor kinase activity (EGFR-NIH3T3 assay) in whole cells was measured as described below:
Materials and Reagents. The following materials and reagents were used • a. […] Anti-phosphotyosine antibody (anti-Ptyr) (polyclonal). • d. Detection antibody: Goat anti-rabbit lgG horse radish peroxidase conjugate, TAGO, Inc., Burlingame, Calif. • e. TBST buffer:
• Keep solution in dark at 4° C. until used. • h. Stock reagents of: • EDTA 100 mM pH 7.0 • Na3VO4 0.5 M • Na4(P2O7) 0.2 M
(§7) Procedure. The following protocol was used:
1. […] Coated plates are good for up to 10 days when stored at 4° C.
2. On day of use, remove coating buffer and replace with blocking buffer (5% Carnation Instant NonFat Dry Milk in PBS). Incubate the plate, shaking, at room temperature (about 23° C. to 25° C.) for 30 minutes. Just prior to use, remove blocking buffer and wash plate 4 times with TBST buffer.
2. Choose dishes having 80-90% confluence for the experiment. Trypsinize cells and stop reaction by adding. 10% CS DMEM medium. Suspend cells in DMEM medium (10% CS DMEM medium) and centrifuge once at 1000 rpm, and once at room temperature for 5 minutes.
3. Resuspend cells in seeding medium (DMEM, 0.5% bovine serum), and count the cells using trypan blue. Viability above 90% is acceptable. Seed cells in DMEM medium (0.5% bovine serum) at a density of 10,000 cells per well, 100 μl per well, in a 96 well microtiter plate. Incubate seeded cells in 5% CO2 at 37° C. for about 40 hours.
1. Check seeded cells for contamination using an inverted microscope. Dilute drug stock (10 mg/ml in DMSO) 1:10 in DMEM medium, then transfer 5 μl to a test well for a final drug dilution of 1:200 and a final DMSO concentration of 1%. Control wells receive DMSO alone. Incubate in 5% CO2 at 37° C. for one hour.
5. […] Control wells receive. DMEM alone. […]
The maximal phosphotyrosine signal is determined by subtracting the value of the negative controls from the positive controls. The percent inhibition of phosphotyrosine content for extract-containing wells is then calculated, after subtraction of the negative controls.
Method for HER2 Kinase: Assay 1: EGF Receptor-HER2 Chimeric Receptor Assay In Whole Cells. HER2 kinase activity in is whole EGFR-NIH3T3 cells was measured as described below:
Materials and Reagents. The following materials and reagents were used to conduct the assay: • a. […] Anti-phosphotyrosine antibody (anti-Ptyr) (polyclonal) (see, Fendley, et al., supra). • d. Detection antibody: Goat anti-rabbit lgG horse radish peroxidase conjugate, TAGO, Inc., Burlingame, Calif. • e. TBST buffer:
Stock reagents of: • EDTA 100 mM pH 7.0 • Na3VO4 0.5 M • Na4(P2O7) 0.2 M
as §7
Coated plates are good for up to 10 days when stored at 4° C.
On day of use, remove coating buffer and replace with 100 μl blocking buffer (5% Carnation Instant Non-Fat Dry Milk in PBS). Incubate the plate, shaking, at room temperature (about 23° C. to 25° C.) for 30 minutes. Just prior to use, remove blocking buffer and wash plate 4 times with TBST buffer.
An NIH3T3 cell line overexpressing a chimeric receptor containing the EGFR extracellular domain and extracellular HER2 kinase domain can be used for this assay.
Choose dishes having 80-90% confluence for the experiment. Trypsinize cells and stop reaction by adding 10% fetal bovine serum. Suspend cells in DMEM medium (10% CS DMEM medium) and centrifuge once at 1500 rpm, at room temperature for 5 minutes.
Resuspend cells in seeding medium (DMEM, 0.5% bovine serum), and count the cells using trypan blue. Viability above 90% is acceptable. Seed cells in DMEM medium (0.5% bovine serum) at a density of 10,000 cells per well, 100 μl per well, in a 96 well microtiter plate. Incubate seeded cells in 5% CO2 at 37° C. for about 40 hours.
Check seeded cells for contamination using an inverted microscope. Dilute drug stock (10 mg/ml in DMSO) 1:10 in DMEM medium, then transfer 5 l to a TBST well for a final drug dilution of 1:200 and a final DMSO concentration of 1%. Control wells receive DMSO alone. Incubate in 5% CO2 at 37° C. for two hours.
Prepare EGF ligand: dilute stock EGF in DMEM so that upon transfer of 10 μl dilute EGF (1:12 dilution), 100 nM final concentration is attained.
Prepare fresh HNTG* sufficient for 100 μl per well; and place on ice.
After 120 minutes incubation with drug, add prepared SGF ligand to cells, 10 μl per well, to a final concentration of 100 nM. Control wells receive DMEM alone. Incubate, shaking, at room temperature, for 5 minutes.
Remove drug, EGF, and DMEM. Wash cells twice with PBS. Transfer HNTG* to cells, 100 μl per well. Place on ice for 5 minutes. Meanwhile, remove blocking buffer from other ELISA plate and wash with TBST as described above. […]
The maximal phosphotyrosine signal is determined by subtracting the value of the negative controls from the positive controls.

As for `O=C1Nc2ccccc2C1=Cc1ccc(Br)cc1` [SU4942, 3-(4-Bromobenzylidenyl)-2-indolinone], the “EpH4-VEGF % inhibition @ mg/kg” value with EpH4-VEGF (@ 25 mg/kg) came out at 47% @ 25; in the assay on EpH4-VEGF (@ 50 mg/kg), 46% @ 50. For the same compound, the IC50 in the assay with HUV-EC-C cells [1] was 4.6 µM.
For `O=C1Nc2ccccc2C1=Cc1ccc(-c2cc(C(F)(F)F)cc(C(F)(F)F)c2)o1` [SU5217], the IC50 is 9.6 µM with HUV-EC-C cells [2] and 10.5 µM in the assay with HUV-EC-C cells [1].
For `COc1ccccc1C=C1C(=O)Nc2ccccc21` [SU5214, 3-(2-Methoxybenzylidenyl)-2-indolinone], the IC50 against EGF Receptor was found to be 36.7 µM; against FLK-1 receptor, 14.8 µM.
Turning to `O=C1Nc2ccccc2C1=Cc1ccc(N2CCOCC2)cc1` [SU4981, 3-[4-(Morpholin-4-yl)benzylidenyl]-2-indolinone], the IC50 at EGFR stood at 20 µM; against FLK-1 receptor, 2.1 µM.
Turning to `CN1C(=O)C(=Cc2ccc(N3CCOCC3)cc2)c2ccccc21` [SU4982, 1-Methyl-3-[4-(morpholin-4-yl)benzylidenyl]-2-indolinone], the IC50 against HER2 Kinase was determined as 39.4 µM; against FLK-1 receptor, 21.6 µM.
`O=C1Nc2ccccc2C1=Cc1cnc[nH]1` [SU5473, 3-[(Imidazol-4-yl)methylene]-2-indolinone]: the IC50 came out at 54 µM at EGFR; 1.2 µM in the assay on HUV-EC-C cells [2] (Homo sapiens, HUVEC); 1.5 µM against FLK-1 receptor; 14.1 µM in the assay with HUV-EC-C cells [1] (Homo sapiens, HUVEC).
In the case of `CCc1ccc(C=C2C(=O)Nc3ccccc32)s1` [SU5451, 3-[(2-Ethylthien-5-yl)methylene]-2-indolinone], the IC50 worked out at 44 µM at EGF Receptor and 3.4 µM against FLK-1 receptor.
In the case of `O=C1Nc2ccccc2C1=Cc1ccc(N2CCCCC2)cc1` [SU5450, 3-[4-(Piperidin-1-yl)benzylidenyl]-2-indolinone], the IC50 at HER2 Kinase worked out at 92.6 µM; on FLK-1 receptor it was 4.5 µM.
As to `COc1ccccc1C=C1C(=O)Nc2ccccc21` [SU4949, 3-(2-Methoxybenzylidenyl)-2-indolinone], the values for the IC50 in the assay on HUV-EC-C cells [2] and with HUV-EC-C cells [1] were 3.4 µM and 3.7 µM, respectively.
On to `CN1C(=O)C(=Cc2ccc(Br)cc2)c2ccccc21` [SU4956, 3-(4-Bromobenzylidenyl)-1-methyl-2-indolinone], for which, at HER2 Kinase, the IC50 is 22.5 µM.
Take `CN(C)c1ccc(C=C2C(=O)Nc3ccc(Cl)cc32)cc1` [SU4967, 5-Chloro-3-(4-dimethylaminobenzylidenyl)-2-indolinone]: the IC50 on EGFR was 60 µM; against FLK-1 receptor, 11.2 µM.
On to `COc1ccc(Br)cc1C=C1C(=O)Nc2ccccc21` [SU4796, 3-(3-bromo-6-methoxybenzylidenyl)-2-indolinone], for which the IC50 with HUV-EC-C cells [2] turned out to be 30.7 µM; in the assay on HUV-EC-C cells [1], 35.8 µM.
With `COC(=O)CCc1c(C)c[nH]c1C=C1C(=O)Nc2ccccc21` [SU5407, 3-{[4-(2-methoxycarbonylethyl)-3-methylpyrrol-5-yl]methylene}-2-indolinone], the IC50 at EGFR is 100 µM; against FLK-1 receptor, 1.1 µM.
On to `O=CN1CCN(c2ccc(C=C3C(=O)Nc4ccccc43)cc2)CC1` [SU4984, 3-[4-(4-Formylpiperazin-1-yl)benzylidenyl]-2-indolinone], for which the IC50 against HER2 Kinase was found to be 90.2 µM; in the assay on HUV-EC-C cells [2], 0.8 µM; against FLK-1 receptor it was 1.6 µM; in assay [3], 22.2 µM; with PDGFR, 5.8 µM; with HUV-EC-C cells [1] it was 25.8 µM.
With `O=C1Nc2ccccc2C1=Cc1cccn1-c1ccc(Cl)cc1` [SU5462], the IC50 in the assay with HUV-EC-C cells [2] is 0.5 µM; in the assay with HUV-EC-C cells [1], 0.8 µM.
Take `COc1ccc(C=C2C(=O)Nc3ccccc32)c(Cl)c1` [SU5480, 3-[2-Chloro-4-methoxybenzylidenyl]-2-indolinone]: the IC50 against EGF Receptor was 39.6 µM; against FLK-1 receptor, 5.3 µM.
As to `O=C1Nc2ccccc2C1=Cc1ccc(Cl)c(Cl)c1` [SU5201, 3-(3,4-Dichlorobenzylidenyl)-2-indolinone], the IC50 with HUV-EC-C cells [2] worked out at 2.5 µM; with HUV-EC-C cells [1] it was 2.3 µM.
For `CN(C)c1c(C=C2C(=O)Nc3ccccc32)cc(C=C2C(=O)Nc3ccccc32)c(N(C)C)c1C#N` [SU5218, 2,6-Di-(dimethylamino)-3,5-di-[(indolin-2-one-3-ylidenyl)methyl]-phenylcyanide], the IC50 came to 2.4 µM in the assay with HUV-EC-C cells [2] (Homo sapiens, HUVEC); 6.4 µM at FLK-1 receptor; 2.7 µM in the assay on HUV-EC-C cells [1] (Homo sapiens, HUVEC).
Turning to `O=C1Nc2ccccc2C1=Cc1ccc(N2CCCC2)cc1` [SU5466, 3-[4-(Pyrrolidin-1-yl)benzylidenyl]-2-indolinone], the IC50 amounted to 17 µM at EGFR and 1.6 µM against FLK-1 receptor.
For `O=C1Nc2ccccc2C1=Cc1ccc(I)o1` [SU5409], the IC50 with HUV-EC-C cells [2] amounted to 26 µM.
For `CCOC(=O)c1c[nH]c(C=C2C(=O)Nc3ccccc32)c1C` [SU5463], the values for the IC50 on EGFR and on FLK-1 receptor were 23 µM and 0.18 µM, respectively.

The record behind these values is patent publication US6906093B2, “Indolinone combinatorial libraries and related products and methods for the treatment of disease” (Sugen, Inc., priority 1995, dated 2005).
